Reference: paper PMC3986099, “Development of a Radioiodinated Triazolopyrimidine Probe for Nuclear Medical Imaging of Fatty Acid Binding Protein 4” (PLoS ONE, 2014)

How the values were obtained:
[1] = In vitro stability in saline and plasma (RP-HPLC); format: in vitro ADME, ddY mice; conditions: 2 hr, 37 °C
Protocol: The in vitro stability of [^125I]TAP1 in plasma was measured using plasma samples taken from ddY mice (males, 7 weeks old). [^125I]TAP1 (0.07 MBq, 0.01 ml) was incubated with 0.1 ml plasma at 37 °C for 2 hr. After addition of 0.2 ml methanol and vortexing, the mixture was centrifuged (4,160×g, 10 min). The supernatant was filtered with a low protein binding hydrophilic PTFE membrane (Millex-LH MILLIPORE), and the filtrate was analyzed by RP-HPLC using a Cosmosil C18 column with an isocratic solvent of H2O (0.1% TFA, v/v)/acetonitrile (0.1% TFA, v/v) (37/63) at a flow rate of 1.5 ml/min.

[2] = target: T1, FABP4 (Homo sapiens, UniProt P15090); test: Saturation binding assay, Scatchard analysis; conditions: immobilized FABP4
T1 construct: purchased Cayman Chemical Company
T1 sequence (P15090 whole entry): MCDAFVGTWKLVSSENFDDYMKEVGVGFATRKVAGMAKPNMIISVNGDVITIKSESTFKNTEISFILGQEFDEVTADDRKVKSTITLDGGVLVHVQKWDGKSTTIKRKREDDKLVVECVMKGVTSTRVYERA
Protocol: For the saturation assay, a mixture solution of [^125I]TAP1 (0.3–9.5 MBq) was prepared by mixing nonradioactive TAP1 (0.0125–0.4 µM) in interaction buffer (2.5% ethanol and 5% DMSO, v/v). Nonspecific binding was defined in the presence of 0.09 mg/ml [^125I]TAP1 including nonradioactive TAP1. After FABP4 immobilization as described above, 0.4 ml interaction buffer and 0.05 ml mixture solution were added, and the mixture was incubated at room temperature for 2 hr. After incubation, the supernatants were removed and the beads were washed with interaction buffer (5% ethanol, v/v). The radioactivity of beads in the tubes was then measured with a well-type γ-counter. The dissociation constant (K d) of [^125I]TAP1 for FABP4 was determined by Scatchard analysis using GraphPad Prism.

Structure (SMILES): O=c1cc(COc2cccc([125I])c2)[nH]c2nc(-c3ccccc3)nn12 [[^125I]TAP1]
- stability in mouse plasma ([1]; mouse plasma): no radioactive degradation products were observed
- stability in saline ([1]; saline): no radioactive degradation products were observed
- Kd [2]: 69.1 ± 12.3 nM
